Key:
Format in all cases: in vivo
[1] = system: velvetleaf; assay: Foliage treatment test for upland field (Test Example 3): velvetleaf; conditions: foliage treatment at 1.0-2.0 leaf stage of southern crabgrass, examined after 3 weeks
Description: (§1) Evaluation of the herbicidal effect is shown in the following six grades, by comparing the condition of untreated control and growth inhibition (%): • 0: 0%-less than 20% • 1: 20%-less than 40% • 2: 40%-less than 60% • 3: 60%-less than 80% • 4: 80%-less than 100% • 5: 100%.
(§2) Compost mixed soil was filled in 1/3,000 are pots, seeded with southern crabgrass, common lambsquaters, slender amaranth, common purslane, velvetleaf, wheat, corn and soybean. The seeds were covered up with the soil and cultured in a glasshouse kept at 25° C. on the average.
(§3) Wettable powders containing the object compounds (1) as identified in Table 1, which were formulated following Preparation Example 2, were diluted with water to the prescribed dose of the active ingredient, and uniformly sprayed onto the weeds at 1.0-2.0 leaf stage of the southern crabgrass at an application water of 15 liters per are.
(§4) After placing the test pots in a grasshouse kept at 25° C. on the average for 3 weeks, the herbicidal effect was examined.
(§5) Evaluation of the herbicidal effect was conducted in the similar manner to Test Example 1.

[2] = system: corn; assay: Foliage treatment test for upland field (Test Example 3): phytotoxicity to corn; conditions: foliage treatment at 1.0-2.0 leaf stage of southern crabgrass, examined after 3 weeks
Description: (§6) Evaluation of phytotoxicity is shown in the following six grades, as compared with the condition of untreated control: • 0: normal growth • 1: little damaged • 2: low damaged • 3: medium damaged • 4: serious damaged • 5: complete killed.
as §2, §4

[3] = system: soybean; assay: Soil treatment test for upland field (Test Example 2): phytotoxicity to soybean; conditions: soil treatment before germination, examined after 3 weeks
Description: as §6
(§7) Upland field soil was filled in 1/3,000 are pots, seeded with southern crabgrass (Digitaria ciliaris), common lambsquaters (Chenopodium album), slender amaranth (Amaranthus viridis), common purslane (Portulaca oleracea), velvetleaf (Abutilon theophrasti), wheat, corn and soybean. The seeds were covered up with the soil.
(§8) After placing the test pots in a glasshouse which was kept at an average temperature of 25° C. for 3 weeks, the herbicidal effect was examined.

[4] = system: southern crabgrass (Digitaria ciliaris); assay: Soil treatment test for upland field (Test Example 2): southern crabgrass; conditions: soil treatment before germination, examined after 3 weeks
Description: as §1, §7
(§9) Wettable powders containing the object compounds (1) as identified in Table 1, which were formulated following Preparation Example 2, were diluted with adequate amount of water to secure the prescribed dose of the active ingredient, and uniformly sprayed onto the surface soil layer after the seeding and before germination of the weeds, at an application water of 15 liters per are.
as §8
(§10) Evaluations of the herbicidal effect and phytotoxicity were made in the manner similar to those in the above Test Example 1.

[5] = system: velvetleaf (Abutilon theophrasti); assay: Soil treatment test for upland field (Test Example 2): velvetleaf; conditions: soil treatment before germination, examined after 3 weeks
Description: as §1, §7, §9, §8, §10

[6] = system: common lambsquaters (Chenopodium album); assay: Soil treatment test for upland field (Test Example 2): common lambsquaters; conditions: soil treatment before germination, examined after 3 weeks
Description: as §1, §7, §9, §8, §10

[7] = system: common lambsquaters; assay: Foliage treatment test for upland field (Test Example 3): common lambsquaters; conditions: foliage treatment at 1.0-2.0 leaf stage of southern crabgrass, examined after 3 weeks
Description: as §1, §2, §3, §4, §5

[8] = system: southern crabgrass; assay: Foliage treatment test for upland field (Test Example 3): southern crabgrass; conditions: foliage treatment at 1.0-2.0 leaf stage of southern crabgrass, examined after 3 weeks
Description: as §1, §2, §3, §4, §5

[9] = system: corn; assay: Soil treatment test for upland field (Test Example 2): phytotoxicity to corn; conditions: soil treatment before germination, examined after 3 weeks
Description: as §6, §7, §8

[10] = system: common purslane (Portulaca oleracea); assay: Soil treatment test for upland field (Test Example 2): common purslane; conditions: soil treatment before germination, examined after 3 weeks
Description: as §1, §7, §9, §8, §10

[11] = system: wheat; assay: Soil treatment test for upland field (Test Example 2): phytotoxicity to wheat; conditions: soil treatment before germination, examined after 3 weeks
Description: as §6, §7, §8

[12] = system: wheat; assay: Foliage treatment test for upland field (Test Example 3): phytotoxicity to wheat; conditions: foliage treatment at 1.0-2.0 leaf stage of southern crabgrass, examined after 3 weeks
Description: as §6, §2, §4

[13] = system: slender amaranth; assay: Foliage treatment test for upland field (Test Example 3): slender amaranth; conditions: foliage treatment at 1.0-2.0 leaf stage of southern crabgrass, examined after 3 weeks
Description: as §1, §2, §3, §4, §5

[14] = system: slender amaranth (Amaranthus viridis); assay: Soil treatment test for upland field (Test Example 2): slender amaranth; conditions: soil treatment before germination, examined after 3 weeks
Description: as §1, §7, §9, §8, §10

[15] = system: soybean; assay: Foliage treatment test for upland field (Test Example 3): phytotoxicity to soybean; conditions: foliage treatment at 1.0-2.0 leaf stage of southern crabgrass, examined after 3 weeks
Description: as §6, §2, §4

[16] = system: common purslane; assay: Foliage treatment test for upland field (Test Example 3): common purslane; conditions: foliage treatment at 1.0-2.0 leaf stage of southern crabgrass, examined after 3 weeks
Description: as §1, §2, §3, §4, §5

[17] = system: barnyard grass (Echinochloa crusgalli); assay: Weed control test for paddy field (Test Example 1): barnyard grass; conditions: paddy pots, treated at 1.0 leaf stage of barnyard grass, examined after 3 weeks
Description: (§11) Paddy field soil was filled in 1/10,000 are pots, kneaded with adequate amounts of water and chemical fertilizer, seeded with barnyard grass (Echinochloa crusgalli), Monochoria (Monochoria vaginalis), Japanese bulrush (Scirpus juncoides) and flat sedge (Cyperus serotinus), and further transplanted with 2.0 leaf stage of rice plant. The pots were maintained under the water-filled condition to a depth of 3 cm.
(§12) Wettable powders containing the compounds (1) as identified in Table 1, which were formulated following Production Example 2, were diluted with adequate amount of water and applied to the pots dropwise with pippet at a prescribed dose of the active ingredients per are, at 1.0 leaf stage of the barnyard grass.
(§13) After placing the pots in a glasshouse which was controlled at an average temperature of 25° C. for 3 weeks, herbicidal effect was examined.
as §1

[18] = system: rice plant; assay: Weed control test for paddy field (Test Example 1): phytotoxicity to rice plant; conditions: paddy pots, treated at 1.0 leaf stage of barnyard grass, examined after 3 weeks
Description: as §11, §12, §13, §6

[19] = system: Japanese bulrush (Scirpus juncoides); assay: Weed control test for paddy field (Test Example 1): Japanese bulrush; conditions: paddy pots, treated at 1.0 leaf stage of barnyard grass, examined after 3 weeks
Description: as §11, §12, §13, §1

[20] = system: Monochoria (Monochoria vaginalis); assay: Weed control test for paddy field (Test Example 1): Monochoria; conditions: paddy pots, treated at 1.0 leaf stage of barnyard grass, examined after 3 weeks
Description: as §11, §12, §13, §1

[21] = system: flat sedge (Cyperus serotinus); assay: Weed control test for paddy field (Test Example 1): flat sedge; conditions: paddy pots, treated at 1.0 leaf stage of barnyard grass, examined after 3 weeks
Description: as §11, §12, §13, §1

| SMILES | Herbicidal Effect velvetleaf ([1]; dose 2.5 g ai/a) | Herbicidal Effect velvetleaf ([1]; dose 5 g ai/a) | Phytotoxicity corn ([2]; dose 2.5 g ai/a) | Phytotoxicity corn ([2]; dose 5 g ai/a) | Herbicidal Effect Common lambsquatters ([7]; dose 2.5 g ai/a) | Herbicidal Effect Common lambsquatters ([7]; dose 5 g ai/a) | Herbicidal Effect southern crabgrass ([8]; dose 2.5 g ai/a) | Herbicidal Effect southern crabgrass ([8]; dose 5 g ai/a) | Phytotoxicity wheat ([12]; dose 2.5 g ai/a) | Phytotoxicity wheat ([12]; dose 5 g ai/a) | Herbicidal Effect slender amaranth ([13]; dose 2.5 g ai/a) | Herbicidal Effect slender amaranth ([13]; dose 5 g ai/a) | Phytotoxicity soybean ([15]; dose 2.5 g ai/a) | Phytotoxicity soybean ([15]; dose 5 g ai/a) | Herbicidal Effect common purslane ([16]; dose 2.5 g ai/a) | Herbicidal Effect common purslane ([16]; dose 5 g ai/a) | Herbicidal Effect Barnyard grass ([17]; dose 2.5 g ai/a) | Herbicidal Effect Barnyard grass ([17]; dose 5 g ai/a) | Phytotoxicity Rice plant ([18]; dose 2.5 g ai/a) | Phytotoxicity Rice plant ([18]; dose 5 g ai/a) | also measured |
| --- | --- | --- | --- | --- | --- | --- | --- | --- | --- | --- | --- | --- | --- | --- | --- | --- | --- | --- | --- | --- | --- |
| FC(F)C(F)(F)COCC(=Cc1cccc(C(F)(F)F)c1)c1nc2cc(C(F)(F)F)ccc2o1 [Compound 87] | 4 (80%-less than 100%) | 5 (100%) | 0 | 1 | 5 (100%) | 5 (100%) | 4 (80%-less than 100%) | 5 (100%) | 0 | 1 | 5 (100%) | 5 (100%) | 1 | 1 | 5 (100%) | 5 (100%) | – | – | – | – | Phytotoxicity soybean ([3]; dose 2.5 g ai/a): 0; Phytotoxicity soybean ([3]; dose 5 g ai/a): 1; Herbicidal Effect southern crabgrass ([4]; dose 2.5 g ai/a): 4 (80%-less than 100%); Herbicidal Effect southern crabgrass ([4]; dose 5 g ai/a): 5 (100%); Herbicidal Effect velvetleaf ([5]; dose 2.5 g ai/a): 4 (80%-less than 100%); Herbicidal Effect velvetleaf ([5]; dose 5 g ai/a): 5 (100%); Herbicidal Effect common lambsquaters ([6]; dose 2.5 g ai/a): 5 (100%); Herbicidal Effect common lambsquaters ([6]; dose 5 g ai/a): 5 (100%); Phytotoxicity corn ([9]; dose 2.5 g ai/a): 0; Phytotoxicity corn ([9]; dose 5 g ai/a): 0; Herbicidal Effect common purslane ([10]; dose 2.5 g ai/a): 5 (100%); Herbicidal Effect common purslane ([10]; dose 5 g ai/a): 5 (100%); Phytotoxicity wheat ([11]; dose 2.5 g ai/a): 0; Phytotoxicity wheat ([11]; dose 5 g ai/a): 1; Herbicidal Effect slender amaranth ([14]; dose 2.5 g ai/a): 5 (100%); Herbicidal Effect slender amaranth ([14]; dose 5 g ai/a): 5 (100%) |
| CCOCC(=Cc1cccc(C(F)(F)F)c1)c1nc2cc(F)cc(F)c2o1 [Compound 112] | – | – | – | – | – | – | – | – | – | – | – | – | – | – | – | – | 4 (80%-less than 100%) | 5 (100%) | 0 | 1 | Herbicidal Effect Japanese bulrush ([19]; dose 2.5 g ai/a): 4 (80%-less than 100%); Herbicidal Effect Japanese bulrush ([19]; dose 5 g ai/a): 5 (100%); Herbicidal Effect Monochoria vaginalis ([20]; dose 2.5 g ai/a): 5 (100%); Herbicidal Effect Monochoria vaginalis ([20]; dose 5 g ai/a): 5 (100%); Herbicidal Effect Flat sedge ([21]; dose 2.5 g ai/a): 3 (60%-less than 80%); Herbicidal Effect Flat sedge ([21]; dose 5 g ai/a): 4 (80%-less than 100%) |
| COCC(=Cc1cccc(C(F)(F)F)c1)c1nc2cc(C(C)(C)C)ccc2o1 [Compound 151] | 3 (60%-less than 80%) | 4 (80%-less than 100%) | 0 | 0 | 5 (100%) | 5 (100%) | 4 (80%-less than 100%) | 5 (100%) | 0 | 0 | 5 (100%) | 5 (100%) | 0 | 0 | 5 (100%) | 5 (100%) | 4 (80%-less than 100%) | 5 (100%) | 0 | 0 | Herbicidal Effect Japanese bulrush ([19]; dose 2.5 g ai/a): 3 (60%-less than 80%); Herbicidal Effect Japanese bulrush ([19]; dose 5 g ai/a): 5 (100%); Herbicidal Effect Monochoria vaginalis ([20]; dose 2.5 g ai/a): 5 (100%); Herbicidal Effect Monochoria vaginalis ([20]; dose 5 g ai/a): 5 (100%); Herbicidal Effect Flat sedge ([21]; dose 2.5 g ai/a): 3 (60%-less than 80%); Herbicidal Effect Flat sedge ([21]; dose 5 g ai/a): 4 (80%-less than 100%) |
